Test results: patent publication US20130059324A1, “SYSTEMS AND METHODS FOR MECHANICALLY STRAINED CELL CULTURE” (THE UNIVERSITY OF KANSAS, priority 2010, published 2013)
Where two headings read alike, the source gives them in different places.

What was measured:
A549 cells [1] = assay: Prototype 96-well plate, viable cell count (Vi-Cell) with and without mechanical forces
Procedure: (§5) After allowing the cells to adhere to the flexible membrane of the 96 well plate for 24 hours, the loading pins and the system described in FIG. 7 to implement mechanical strain were used to deliver 20% maximum strain for 2 seconds to the plate assigned for mechanical forces (+M Group), followed by 2 seconds of rest (15 cycles per minute with an average strain of 10% per cycle) in keeping with a normal human respiration.
(§6) In a parallel experiments, the cells were treated with anti-tumor drug after 72 hours of initial seeding (after 48 hours of mechanical stretching). The drug was dissolved in dimethyl sulfoxide (DMSO) at stock concentration and added to the respective media. […] The IC90 concentrations of the drugs were then added to prototype plate.
(§7) The +M Group was subjected to continuous mechanical stretching while the −M Group plate was placed in the same incubator for additional 24 hours.
(§8) In order to quantify viability, 6 wells per treatment group for ViCell counter and 6 wells per condition for MTS were assigned to determine the cell viability. Using Vi-Cell counter, assigned wells were filled with extra 210 μl of media to keep the volume constant in all the wells. Media from the assigned wells were transferred into a 24-well plate, and the well location was recorded. About 50 μl of trypLE was added to each well and allowed to trypsinize for a maximum of ten minutes. A small amount of media from the 24-well plate was transferred back into corresponding wells of the prototype plate to collect detached cells.
(§9) Media and cells were transferred back into the corresponding well of the 24-well plate. All wells were brought to a final volume of 1.25 mL with PBS and mixed well. About 1 ml of this cell suspension was transferred to ViCell counter to determine the number of viable cells.

H358 cells [2] = assay: Prototype 96-well plate, MTS assay with and without mechanical forces; format: cell-based, human; details: drug at IC90, 24 hours, 490 nm; for MTS absorbance after 24 hours of drug exposure, With forces (Ef): mechanical forces; for MTS absorbance after 24 hours of drug exposure, Without forces (E): no forces
Procedure: (§1) The prototype plate was read using the Biotek plate reader at the wavelength of 490 nm until the media only wells absorbance reached 1.0. For the +M group plate, 30 ul of MTS was added to the assigned wells and kept in the incubator for the same amount of time that required for the −M group to develop and read at the same wavelength.

A549 cells [3] = assay: as above; format: cell-based, human
Procedure: as §1

NCI-H358 cells = assay: Drug exposure with or without simulated forces, 6-well Bioflex plates, live cell count and exponential growth model; format: cell-based, human; details: for Growth Rates, With forces / Growth Rates, Without forces: drug at IC90 for 3 days; for Growth Rates, With forces: 20% maximum strain, 15 cycles/minute; for Growth Rates, Without forces: no forces; for Effectiveness of The Drug, Without forces (E) / Effectiveness of The Drug, With forces (Ef): percentage reduction in live cell counts; for Effectiveness of The Drug, Without forces (E): 3-day drug exposure at IC90, no forces; for Effectiveness of The Drug, With forces (Ef): 3-day drug exposure at IC90, simulated forces
Text: (§2) Treatments 1, 2 and 3 served as unstretched controls for Treatments 4, 5 and 6, respectively. For each cell line and drug, all treatments were independently repeated at least 3 times on different days, with 3 replicates per Treatments 1 and 4 (n=9) and 5 replicates per all other treatments (n=15).
The NCI-H358 (ATCC® CRL-5807) and A549 (ATCC® CCL-185) cell lines were obtained from American Type Culture Collection (ATCC, Manassas, Va.) and cultured in RPMI-1640 (NCI-H358) and HAM's F12K (A549) media containing 10% Fetal Bovine Serum (Sigma Aldrich, St. Louis, Mo.) and 1% Penicillin Streptomycin (Sigma Aldrich). Cells were passaged in 75 cm2 culture flasks at 37° C. in 5% CO2, and trypsinized using TryplE™ Express (Gibco) containing phenol red.
Cells were plated in 6-well Bioflex® plates (Flexcell® International Corporation, Hillsborough, N.C.). Each well of the plate has a flexible elastic membrane coated with a thin layer of type I collagen. Type I collagen was chosen since it more accurately represents the physiology of lung tumor cells in vivo. The Flexcell is not configured for drug studies as described herein, and had to be modified as described herein. […] Therefore, to have the same number of cells in culture at the time of drug exposure, initial seeding densities for treatments not involving simulated forces (Treatments 1-3) and those involving forces (Treatments 4-6) were adjusted for each cell line. In Treatments 1, 2 and 3, NCI-H358 and A549 cells were plated at a density of 100,000 and 20,000 cells/well in 2 ml of corresponding media, respectively. For treatments involving simulated forces (Treatments 4-6), NCI-H358 and A549 cells were plated at a density of 170,000 and 35,000 cells/well, respectively.
After allowing the cells to adhere to the membrane for 24 hours, the plates assigned for simulated forces were stretched using the FX-4000 Tension plus unit (Flexcell® International Corporation, Hillsborough, N.C.). The Flexcell unit was configured to deliver an alternating positive and negative pressure beneath the cell culture surfaces. Negative pressure pulls the culture surface down over a stationary Delrin post on the baseplate, delivering a uniform biaxial strain to the cells, and subsequent application of positive pressure releases this distension (FIGS. 9A and 9B.) In this manner, the alternating positive and negative pressure simulates forces experienced during respiration. Culture plates experiencing forces were fitted with rubber gaskets and placed on circular loading stations in the baseplate. […] Cells were preconditioned with mechanical forces for 48 hours, in an incubator at 37° C., 5% CO2 and 95% relative humidity.
(§3) After 72 hours of initial seeding, one of the five drugs was added to Treatments 3 and 6 of each cell line. […] The IC90, concentration of the drug that inhibits the growth of 90% of the cells in a static monolayer culture, was used to assure a significant inhibition in the absence of simulated forces. To insure comparability, an aliquot of 1 ml of media without the drug was added to each well in Treatments 2 and 5. After adding the drug or 1 ml of media, the plates from Treatments 5 and 6 were placed back on the baseplate and subjected to the same force profile as before for the remaining 72 hours. Plates from Treatments 2 and 3 (without forces) were placed in the same incubator for the remaining 72 hours.
(§4) Cells were trypsinized and counted at the end of day 3 in Treatments 1 and 4, and at the end of day 6 in the other treatments, using a Beckman Coulter Vi-Cell Analyzer (Beckman Coulter, Fullerton, Calif.). To examine changes in morphology, microphotographs of A549 and NCI-H358 cells were taken at the end of Treatments 1, 2, 4 and 5 using an Olympus inverted microscope and a 10× objective.
The standard exponential cell growth model (28) was used to describe the changes in live cell counts after each treatment. […]

A549 cells [4] = assay: as above; format: cell-based, human; details: for Growth Rates, With forces / Growth Rates, Without forces: drug at IC90 for 3 days; for Growth Rates, With forces: 20% maximum strain, 15 cycles/minute; for Growth Rates, Without forces: no forces, negative = reduction in viable cell count; for Effectiveness of The Drug, Without forces (E) / Effectiveness of The Drug, With forces (Ef): percentage reduction in live cell counts; for Effectiveness of The Drug, Without forces (E): 3-day drug exposure at IC90, no forces; for Effectiveness of The Drug, With forces (Ef): 3-day drug exposure at IC90, simulated forces
Procedure: as §2
Cells were passaged in 75 cm2 culture flasks at 37° C. in 5% CO2, and trypsinized using TryplE™ Express (Gibco) containing phenol red.
Cells were plated in 6-well Bioflex® plates (Flexcell® International Corporation, Hillsborough, N.C.). Each well of the plate has a flexible elastic membrane coated with a thin layer of type I collagen. Type I collagen was chosen since it more accurately represents the physiology of lung tumor cells in vivo. […] In Treatments 1, 2 and 3, NCI-H358 and A549 cells were plated at a density of 100,000 and 20,000 cells/well in 2 ml of corresponding media, respectively. For treatments involving simulated forces (Treatments 4-6), NCI-H358 and A549 cells were plated at a density of 170,000 and 35,000 cells/well, respectively.
After allowing the cells to adhere to the membrane for 24 hours, the plates assigned for simulated forces were stretched using the FX-4000 Tension plus unit (Flexcell® International Corporation, Hillsborough, N.C.). The Flexcell unit was configured to deliver an alternating positive and negative pressure beneath the cell culture surfaces. Negative pressure pulls the culture surface down over a stationary Delrin post on the baseplate, delivering a uniform biaxial strain to the cells, and subsequent application of positive pressure releases this distension (FIGS. 9A and 9B.) In this manner, the alternating positive and negative pressure simulates forces experienced during respiration. Culture plates experiencing forces were fitted with rubber gaskets and placed on circular loading stations in the baseplate.
After 72 hours of initial seeding, one of the five drugs was added to Treatments 3 and 6 of each cell line. […] To insure comparability, an aliquot of 1 ml of media without the drug was added to each well in Treatments 2 and 5. After adding the drug or 1 ml of media, the plates from Treatments 5 and 6 were placed back on the baseplate and subjected to the same force profile as before for the remaining 72 hours. Plates from Treatments 2 and 3 (without forces) were placed in the same incubator for the remaining 72 hours.
as §4
The standard exponential cell growth model (28) was used to describe the changes in live cell counts after each treatment. According to this model, the cell count (e.g., N) at a particular time (e.g., t), is given by the equation:
N* is the initial cell count and λ is the cell growth rate. For each cell line, the following cell growth rates were estimated: λ=growth rate in the absence of forces and drugs, λd=growth rate in the presence of a particular drug but no forces, λXf=growth rate in the presence of forces but no drugs; and λfd=growth rate in the presence of forces and a particular drug. The growth rates λd and λfd were estimated for each tested drug. Using these growth rates and the exponential growth model, the final cell counts were mathematically modeled for each treatment under various conditions (FIG. 8). For each cell line, a linear regression model that combined the information from the 5 investigated drugs was built using Stata Statistical Software (StataCorp LP, Texas) after log-transforming the six equations listed in FIG. 8. The regression coefficients in the model were the growth rates.

[5] = test system: cells in a static monolayer culture; assay: IC90 in static monolayer culture (tested concentration); format: cell-based; details: concentration that inhibits the growth of 90% of the cells in a static monolayer culture
Procedure: Table 1 includes a list of investigated chemotherapeutic drugs, their mechanisms of action and the tested concentrations.
as §3

H358 cells [6] = assay: Prototype 96-well plate, viable cell count (Vi-Cell) with and without mechanical forces; format: cell-based, human; details: for Effect of mechanical forces on viable cell count / cytotoxicity: 24 hours drug exposure, prototype 96-well plate; for Viable Cell Count after 24 hours of drug exposure, With forces (Ef) / Viable Cell Count after 24 hours of drug exposure, Without forces (E): drug at IC90, 24 hours; for Viable Cell Count after 24 hours of drug exposure, With forces (Ef): mechanical forces; for Viable Cell Count after 24 hours of drug exposure, Without forces (E): no forces
Procedure: as §5
In a parallel experiments, the cells were treated with anti-tumor drug after 72 hours of initial seeding (after 48 hours of mechanical stretching). The drug was dissolved in dimethyl sulfoxide (DMSO) at stock concentration and added to the respective media. An aliquot of 50 μl of drug stock solution was added to the well containing 100 μl of media (a 1:3 dilution) in a drug plate to get the desired IC90 concentration of the drug (Table 1). The IC90 concentrations of the drugs were then added to prototype plate.
as §7
In order to quantify viability, 6 wells per treatment group for ViCell counter and 6 wells per condition for MTS were assigned to determine the cell viability. Using Vi-Cell counter, assigned wells were filled with extra 210 μl of media to keep the volume constant in all the wells.

A549 cells [7] = test system: A549 cells
Procedure: as §5, §6, §7, §8, §9

Compound | MTS absorbance after 24 hours of drug exposure, With forces (Ef) (H358 cells [2]) | MTS absorbance after 24 hours of drug exposure, Without forces (E) (H358 cells [2]) | Growth Rates, With forces (NCI-H358 cells) | Growth Rates, Without forces (NCI-H358 cells) | Effectiveness of The Drug, Without forces (E) (NCI-H358 cells) | Effectiveness of The Drug, With forces (Ef) (NCI-H358 cells) | Growth Rates, With forces (A549 cells [4]) | Growth Rates, Without forces (A549 cells [4]) | Effectiveness of The Drug, Without forces (E) (A549 cells [4]) | Effectiveness of The Drug, With forces (Ef) (A549 cells [4]) | IC90 [5] | Effect of mechanical forces on viable cell count / cytotoxicity (H358 cells [6]) | Viable Cell Count after 24 hours of drug exposure, With forces (Ef) (H358 cells [6]) | Viable Cell Count after 24 hours of drug exposure, Without forces (E) (H358 cells [6]) | other results
COc1cc2c(Nc3ccc(Br)cc3F)ncnc2cc1OCC1CCN(C)CC1 [Zactima] | 0.368 | 0.536 | −0.833 per day | −0.163 per day | 81.6% | 93.7% | −0.398 per day | −0.055 per day | 86.8% | 85.6% | 50 µM | decrease in the ability | 11000.0 | 22000.0 | Effect of mechanical forces on viable cell count / cytotoxicity (A549 cells [1]; 24 hours drug exposure, prototype 96-well plate): remained unaffected; Viable Cell Count after 24 hours of drug exposure, With forces (Ef) (A549 cells [1]; drug at IC90, 24 hours, mechanical forces): 15625.0; Viable Cell Count after 24 hours of drug exposure, Without forces (E) (A549 cells [1]; drug at IC90, 24 hours, no forces): 23333.3; MTS absorbance after 24 hours of drug exposure, With forces (Ef) (A549 cells [3]; A549, drug at IC90, 24 hours, 490 nm, mechanical forces): 0.307; MTS absorbance after 24 hours of drug exposure, Without forces (E) (A549 cells [3]; A549, drug at IC90, 24 hours, 490 nm, no forces): 0.495; Effectiveness of The Drug, Without forces (E) (NCI-H358 cells; listed as P00006): 81.6%; Effectiveness of The Drug, With forces (Ef) (NCI-H358 cells; listed as P00006): 93.7%
N.N.[Cl][Pt][Cl] [Cisplatin] |  |  | −0.233 per day | −0.027 per day | 72.4% | 62.1% | −0.211 per day | −0.204 per day | 91.6% | 74.7% | 50 µM |  |  |  | Effectiveness of The Drug, Without forces (E) (A549 cells [4]; listed as P00004): 91.6%; Effectiveness of The Drug, With forces (Ef) (A549 cells [4]; listed as P00004): 74.7%
COc1cccc2c1C(=O)c1c(O)c3c(c(O)c1C2=O)C[C@@](O)(C(=O)CO)C[C@@H]3O[C@H]1C[C@H](N)[C@H](O)[C@H](C)O1 [Doxorubicin] | 0.488 | 0.629 | −0.357 per day | −0.031 per day | 72.7% | 73.9% | −0.268 per day | −0.170 per day | 90.7% | 78.7% | 30 µM | decrease in the ability | 7500.0 | 17750.0 | MTS absorbance after 24 hours of drug exposure, With forces (Ef) (A549 cells [3]): 0.430; MTS absorbance after 24 hours of drug exposure, Without forces (E) (A549 cells [3]): 0.697; Effect of mechanical forces on viable cell count / cytotoxicity (A549 cells [7]): Statistically significant reduction
